Measurements as given in US6087334A, “Anti-diabetic peptides” (Amylin Pharmaceuticals, Inc., priority 1998, dated 2000).
Where a SMILES comes first, the peptide text is derived from it. Bridges are numbered along the chain shown (N, C = ends).

target: T1, C1a receptor (C1a-type calcitonin receptor) (Rattus norvegicus, UniProt P32214); test: C1a/293 competitive binding, displacement of [125I]-human calcitonin (Example C); conditions: HEK293 plasma membranes (C1a/293), [125I]-human calcitonin 20 pM
T1 construct: expressed in transfected cells
T1 sequence (P32214 25-479 isoform P32214-2 limits assumed): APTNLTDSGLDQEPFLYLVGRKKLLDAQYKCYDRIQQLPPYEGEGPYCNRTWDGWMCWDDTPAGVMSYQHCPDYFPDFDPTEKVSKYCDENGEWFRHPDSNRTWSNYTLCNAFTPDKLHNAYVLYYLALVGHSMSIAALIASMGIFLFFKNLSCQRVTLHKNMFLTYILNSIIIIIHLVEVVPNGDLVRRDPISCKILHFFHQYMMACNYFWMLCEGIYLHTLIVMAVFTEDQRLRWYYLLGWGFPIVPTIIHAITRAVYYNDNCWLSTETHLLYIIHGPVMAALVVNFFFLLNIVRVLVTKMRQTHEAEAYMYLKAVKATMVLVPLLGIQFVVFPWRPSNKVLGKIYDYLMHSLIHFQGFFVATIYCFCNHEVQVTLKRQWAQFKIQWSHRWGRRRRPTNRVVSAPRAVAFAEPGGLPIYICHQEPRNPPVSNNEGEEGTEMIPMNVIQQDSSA

| SMILES | IC50 |
| --- | --- |
| CC(C)C[C@H](NC(=O)[C@H](CCCNC(=N)N)NC(=O)[C@H](C)NC(=O)[C@@H](NC(=O)[C@H](C)NC(=O)[C@@H]1CSSC[C@H](NC(=O)[C@@H](N)CCCCN)C(=O)N[C@@H](CC(N)=O)C(=O)N[C@@H]([C@@H](C)O)C(=O)N[C@@H](C)C(=O)N[C@@H]([C@@H](C)O)C(=O)N1)[C@@H](C)O)C(=O)N[C@@H](C)C(=O)N[C@@H](C)C(=O)N[C@@H](Cc1ccccc1)C(=O)N[C@@H](CC(C)C)C(=O)N[C@@H](C)C(=O)N[C@@H](CCCNC(=N)N)C(=O)N[C@@H](CO)C(=O)N[C@@H](CO)C(=O)NCC(=O)N[C@@H](Cc1ccc(O)cc1)C(N)=O [Example 1] (H-KCNTATCATARLAAFLARSSGY-NH2; disulfide 2-7) | 0.093 nM |
| CC(C)C[C@H](NC(=O)[C@H](CCCNC(=N)N)NC(=O)[C@H](C)NC(=O)[C@@H](NC(=O)[C@H](C)NC(=O)[C@@H]1CSSC[C@H](N)C(=O)N[C@@H](CC(N)=O)C(=O)N[C@@H]([C@@H](C)O)C(=O)N[C@@H](C)C(=O)N[C@@H]([C@@H](C)O)C(=O)N1)[C@@H](C)O)C(=O)N[C@@H](C)C(=O)N[C@@H](C)C(=O)N[C@@H](Cc1ccccc1)C(=O)N[C@@H](CC(C)C)C(=O)N[C@@H](C)C(=O)N[C@@H](CCCNC(=N)N)C(=O)N[C@@H](CO)C(N)=O [Example 3] (H-CNTATCATARLAAFLARS-NH2; disulfide 1-6) | 0.19 nM |
| CC(C)C[C@H](NC(=O)[C@H](CCCNC(=N)N)NC(=O)[C@H](C)NC(=O)[C@@H](NC(=O)[C@H](C)NC(=O)[C@@H]1CSSC[C@H](NC(=O)[C@@H](N)CCCCN)C(=O)N[C@@H](CC(N)=O)C(=O)N[C@@H]([C@@H](C)O)C(=O)N[C@@H](C)C(=O)N[C@@H]([C@@H](C)O)C(=O)N1)[C@@H](C)O)C(=O)N[C@@H](C)C(=O)N[C@@H](CC(N)=O)C(=O)N[C@@H](Cc1ccccc1)C(=O)N[C@@H](CC(C)C)C(=O)N[C@H](C(=O)N[C@@H](CCCNC(=N)N)C(=O)N[C@@H](CO)C(=O)N[C@@H](CO)C(=O)NCC(=O)N[C@@H](Cc1ccc(O)cc1)C(N)=O)C(C)C [Example 5] (H-KCNTATCATARLANFLVRSSGY-NH2; disulfide 2-7) | 1.4 nM |
| CC(C)C[C@H](NC(=O)[C@H](CCCNC(=N)N)NC(=O)[C@H](C)NC(=O)[C@@H](NC(=O)[C@H](C)NC(=O)[C@H](C)NC(=O)[C@@H](NC(=O)[C@H](CO)NC(=O)[C@@H](N)CC(C)C)[C@@H](C)O)[C@@H](C)O)C(=O)N[C@@H](C)C(=O)N[C@@H](C)C(=O)N[C@@H](Cc1ccccc1)C(=O)N[C@@H](CC(C)C)C(=O)N[C@@H](C)C(=O)N[C@@H](CCCNC(=N)N)C(=O)N[C@@H](CO)C(N)=O [Example 6] (H-LSTAATARLAAFLARS-NH2) | 1.4 nM |
